Source: patent US20120141491A1, “METHODS AND COMPOSITIONS FOR THE TREATMENT OF CANCERS AND PATHOGENIC INFECTIONS” (priority 2009, published 2012)
Entries after “also recorded” stand apart in the source; their conditions may differ. Read-outs that look alike come from different tables or passages of the source.

What was measured:
Format in all cases: cell-based
[1] = tested on: Saos-2 osteosarcoma cells expressing GFP-LC3; test: Autophagy response by punctate localization of GFP-LC3 to autophagic vacuoles, fluorescence microscopy; settings: for Stimulation of autophagy compared with amino acid and serum starved cells (FIG. 2G): 100 μM; for Stimulation of autophagy compared with amino acid and serum starved cells (FIG. 2G) / Enhancement of autophagy (GFP-LC3 at autophagic vacuoles): enriched (Fed) medium; for Activate Autophagy Response: Table 1; for Induction of autophagy: Table 2; for Localization of GFP-LC3 to autophagic vacuoles (FIG. 4): 100 mM Bcl-targeted compounds, fed Saos2 cells
Experimental: FIGS. 2A-2G. Activation of autophagy by Bcl-XL targeting compounds. The positions of C2 in Site 1 (FIG. 2A), C5 in Site 1 (FIG. 2B), and C8 in Site 2 (FIG. 2C) of Bcl-xl are shown by in silico molecular docking. Saos-2 osteosarcoma cells expressing GFP-LC3 were incubated in enriched (Fed) medium in the presence of C2 (FIG. 2D), C5 (FIG. 2E) and C8 (FIG. 2F) Bcl-targeted compounds. GFP-LC3 is found diffuse throughout the cytosol and nucleus when autophagy is suppressed. Ongoing autophagy can be visualized by the presence of GFP-LC3 at autophagic vacuoles (AVs) that appear as dots (arrows). […] In FIG. 2E, Saos-2 osteosarcoma cells expressing GFP-LC3 were incubated in enriched (Fed) medium in the absence and presence of Bcl-targeted compounds or in medium lacking amino acids and serum (Starved).
(§1) FIG. 4A-4F. Activation of autophagy by Bcl-targeted compounds. The localization of GFP-LC3 to autophagic vacuoles was enhanced by […] Bcl-targeted compounds in Saos-2 osteosarcoma cells. The autophagy response in fed Saos2 cells was measured in the absence and presence of anti-Bcl compounds by visualizing the punctate localization of GFP-LC3 (FIGS. 4A-4C) and RFP-GFP-LC3 (FIGS. 4D-4F) to autophagic vacuoles. In untreated fed cells, the GFP-LC3 is localized uniformly throughout the cell. […] Autophagy in cells expressing RFP-GFP-LC3 (FIGS. 4D-4F) was activated with compound B2-1. Structures containing RFP (red, FIG. 4D) and GFP (green, FIG. 4E) are autophagosomes (arrow), while RFP (red, FIG. 4D) structures are autolysosomes (arrowhead).
(§2) FIGS. 5A-5C. Characterization of proBeclin 1 compounds. Upon ranking 100 NCl compounds by in silico docking to Bcl-xl, the autophagy responses were evaluated in fed Saos-2 cells expressing GFP-LC3 (FIG. 5A). […] Cells were maintained in nutrient-rich medium in the absence and presence of Bcl-targeted compounds for 4 hr. The cells were then solubilized, Beclin 1 complex immunoprecipitated, and the Beclin 1 hound proteins identified by Western blotting (FIG. 5C). The IgG-LC is the immunoglobin light chain of the anti-Beclin 1 antibody that was used to immunoprecipitate the complex. The absence of Bcl-xl is indicative of an inhibition of Beclin 1 binding.
This was done in Saos-2 osteosarcoma cells stably expressing the autophagosome marker, GFP-LC3. In fed cells not undergoing autophagy GFP-LC3 is a soluble protein found throughout the cytosol. In amino acid and serum starved cells, autophagy is activated and GFP-LC3 becomes associated with autophagic vacuoles that can be visualize by fluorescence microscopy.
(§3) When autophagy is suppressed, GFP-LC3 distributes uniformly throughout the cellular cytoplasm (FIG. 4A). Autophagy response can be observed by visualizing the punctuate pattern of GFP-LC3 indicative of the presence of autophagic vacuoles. We can also use tandem-labeled LC3, RFP-GFP-LC3 to better assess the dynamics of the autophagy response by visualizing both autophagosomes and autolysosomes (FIG. 4D-4F). […] To further substantiate that the accumulation of GFP-LC3 structures is not due to a blockage of basal autophagy but the positive effects of the compounds on the autophagy response, the autophagy response is validated by quantitative protein turnover measures using radiolabeled amino acids (FIG. 5B). Finally, we determine whether the compound interferes with Beclin 1 binding to Bcl-xl (FIG. 5C) and Bcl-2 as we would suspect if the compound acts through the intended novel mechanism of action.

[2] = tested on: NeuT cells
Experimental: (§4) FIGS. 3A-3E. Effects of Bcl-XL targeted small compounds on the autophagy response and cell survival in NeuT cells. The positions of C4 in Site 1 (FIG. 3A), and C9 in Site 2 (FIG. 3B) of Bcl-xl are shown by in silico molecular docking. NeuT (Her2-positive breast cancer cell line) cells expressing GFP-LC3 were incubated in enriched (Fed) medium in the presence of C4 (FIG. 3C) and C9 (FIG. 3D) Bcl-targeted compounds. GFP-LC3 is found on autophagic vacuole that appear as dots (arrows). In FIG. 3E, the survival of NeuT cells was quantified after 20h of treatment with 0.1-1000 μM of Site 1 (C2 and C4) and Site 2 (C7 and C9) compounds.
(§5) Cell survival is suppressed by Bcl2-targeted compounds: Next, we examined the effects of the Bcl-xl targeted compounds C2, C4, C7, and C9 on autophagy and cell death in Her2/Neu-positive NeuT breast carcinoma cells (FIGS. 3A-E).

[3] = tested on: protein degradation; test: Protein degradation by pulse-chase methods using 14C-valine; settings: for Rates of protein degradation (FIG. 5B): 14C-valine pulse-chase, compared to a control compound, n=6; for Stimulate Protein Degradation: Table 1; for Proteolysis, bar coding of FIG. 5A: black bar stimulated, striped bar inhibited
Experimental: as §2, §3

[4] = tested on: Beclin 1/Bcl binding; test: Beclin 1/Bcl binding by immunoprecipitation with anti-Beclin 1 antibodies and Western blotting; settings: for Inhibit Beclin 1 Binding: Table 1; for Beclin 1 binding to Bcl-xl / Bcl proteins: nutrient-rich medium, 4 hr
Source text: FIGS. 5A-5C. Characterization of proBeclin 1 compounds. […] Cells were maintained in nutrient-rich medium in the absence and presence of Bcl-targeted compounds for 4 hr. The cells were then solubilized, Beclin 1 complex immunoprecipitated, and the Beclin 1 hound proteins identified by Western blotting (FIG. 5C). The IgG-LC is the immunoglobin light chain of the anti-Beclin 1 antibody that was used to immunoprecipitate the complex.
Autophagy response can be observed by visualizing the punctuate pattern of GFP-LC3 indicative of the presence of autophagic vacuoles. We can also use tandem-labeled LC3, RFP-GFP-LC3 to better assess the dynamics of the autophagy response by visualizing both autophagosomes and autolysosomes (FIG. 4D-4F). […] Finally, we determine whether the compound interferes with Beclin 1 binding to Bcl-xl (FIG. 5C) and Bcl-2 as we would suspect if the compound acts through the intended novel mechanism of action.

[5] = tested on: NeuT (Her2-positive breast cancer cell line) cells expressing GFP-LC3; test: Autophagy response by GFP-LC3 localization in NeuT cells; settings: enriched (Fed) medium
Experimental: as §4, §5

[6] = tested on: Saos2 cells expressing RFP-GFP-LC3; test: Autophagy flux with tandem-labeled RFP-GFP-LC3 (autophagosomes and autolysosomes); settings: fed Saos2 cells; listed as B2-1
Experimental: as §1
When autophagy is suppressed, GFP-LC3 distributes uniformly throughout the cellular cytoplasm (FIG. 4A). Autophagy response can be observed by visualizing the punctuate pattern of GFP-LC3 indicative of the presence of autophagic vacuoles. […] To further substantiate that the accumulation of GFP-LC3 structures is not due to a blockage of basal autophagy but the positive effects of the compounds on the autophagy response, the autophagy response is validated by quantitative protein turnover measures using radiolabeled amino acids (FIG. 5B). […]

Row | SMILES | Activate Autophagy Response [1] | Induction of autophagy [1] | Induction of cell death [2] | Stimulate Protein Degradation [3] | Proteolysis, bar coding of FIG. 5A [3] | Inhibit Beclin 1 Binding [4] | Stimulation of autophagy compared with amino acid and serum starved cells (FIG. 2G) [1] | Localization of GFP-LC3 to autophagic vacuoles (FIG. 4) [1] | Enhancement of autophagy (GFP-LC3 at autophagic vacuoles) [1] | Autophagy in NeuT cells [5] | Beclin 1 binding to Bcl-xl / Bcl proteins [4] | other results
1 | CCCCC(CC)CN1CN(CC(CC)CCCC)CC(C)(N)C1 (stereo not drawn) [NSC17764, 5-pyrimidinamine, 1,3-bis(2-ethylhexyl)hexhydro-5-methyl-] | Yes | Induces | causes cell death | No | inhibited | No | – | – | – | – | – | Stimulation of autophagy compared with amino acid and serum starved cells (FIG. 2G) ([1]; listed as C5): promote autophagy; also recorded: stimulated autophagy to levels seen in amino acid and serum starved cells; Enhancement of autophagy (GFP-LC3 at autophagic vacuoles) ([1]; listed as Bx-11): promotes an accumulation of GFP-LC3 structures; also recorded: promote the accumulation of autophagic vacuoles; Enhancement of autophagy (GFP-LC3 at autophagic vacuoles) ([1]; listed as C5): enhanced autophagy; Rates of protein degradation (FIG. 5B) ([3]; listed as Bx-11): suppressed protein degradation; also recorded: inhibit protein degradation
2 | Nc1c(/N=N/c2ccc(S(=O)(=O)Nc3cnccn3)cc2)cc(S(=O)(=O)O)c2ccccc12 [NSC31331] | Yes | Induces autophagy | – | – | – | Yes | promote autophagy | autophagic vacuoles are visualize as dots or ring-like structures | stimulate autophagy | induced autophagy | interfere with Beclin 1 binding | Rates of protein degradation (FIG. 5B) [3]: elevated
3 | O=C(C[N+]12CN3CN(CN(C3)C1)C2)c1ccc2ccccc2c1.[Br-] [NSC36400] | Yes | Induces autophagy | – | – | – | No | promote autophagy | – | – | enhanced autophagy | – | Induction of cell death ([2]; Table 2, cells not given): causes cell death
4 | CN(C)CCCN1CC2CCCCC2C1 (stereo not drawn) [NSC43537, 3-(1,3,3a,4,5,6,7,7a-octahydroisoindol-2-yl)-N,N-dimethylpropan-1-amine] | Yes | NSC 43537 Induces autophagy; not tested for the induction of cell death | – | Yes | stimulated proteolysis | Yes | – | – | stimulate autophagy | – | inhibiting Beclin 1 binding | Autophagy / autophagy flux in cells expressing RFP-GFP-LC3 [6]: activated; also recorded: autophagy flux is enhanced; Rates of protein degradation (FIG. 5B) ([3]; listed as B2-1): elevated; also recorded: stimulate
5 | Nc1nc(S)c2ncn(C3CC(O)C(COP(=O)(O)O)O3)c2n1 (stereo not drawn) [NSC94668] | Yes | Induces autophagy | causes cell death | Yes | – | No | promote autophagy | autophagic vacuoles are visualize as dots or ring-like structures | activate autophagy | enhanced autophagy | – | Rates of protein degradation (FIG. 5B) ([3]; listed as Bx-22): elevated; also recorded: activate; Beclin 1 binding to Bcl-xl / Bcl proteins ([4]; listed as Bx-22): did not; also recorded: do not appear to affect Beclin 1 binding
